From patent publication US8790687B2, “Triterpene compounds which are effective on improvement of brain function” (priority 2003, dated 2014)

Key:
in vivo = conditions: male, ICR, mouse, in vivo, po
From the text: (§1) Furthermore, for 2 weeks after the administration, the death rate, general conditions and body weight of mice were examined and abnormality of organs was observed via autopsy.

ICR mice = assay: in vivo; conditions: oral; for disorders (general conditions): all dosages (2.0 g/kg, 680, 230, 75 mg/kg); for disorders (general conditions) / results of autopsy (abnormality of organs): ICR mice; for results of autopsy (abnormality of organs): autopsy after 2 weeks observation, versus control group; for LD10: seven times in 1 week, male ICR mice, observed 2 weeks
From the text: as §1

mice = assay: Passive avoidance test, scopolamine-induced memory failure; type: in vivo; conditions: scopolamine (1 mg/kg) group = 0%; for memory improvement / prevention activity to memory failure: passive avoidance latency, control without scopolamine and drugs = 100%, oral single administration, dose of compound not given
From the text: A shuttle box (50×15×40 cm) was used as an experimental device. The box was divided into two rooms by a guillotine door, where one of which was bright by illumination while the other was dark by black cloth, giving rise to two different illumination effects. Firstly, mice were placed into a bright room, the bright room was kept lighted and the guillotine door was kept open. The mice entered the dark room in 20 sec in accordance with their negative phototaxis and the guillotine door was kept closed upon the entrance. The latency period in which a mouse enters the dark room from the bright room was measured in a manner described above. On the first day of the test, all mice were subject to a training trial for 20-sec latency period. Next day, mice subject to the training trial were again placed in the bright room and the bright room was then kept lighted to render mice to enter the dark room. At this time, the electric shock of 0.8 mA was imposed for 3 sec by using an electric grid equipped on the bottom of the dark room to impose the electric shock on the sole of mice feet. After 24 hr of such acquisition trial, mice were again placed in the bright room and the bright room was then kept lighted to induce mice to enter the dark room. At this time, normal mice hesitated to enter the dark room due to the memory about the shock of the previous day. […] The control not subject to the administration of scopolamine and drugs was considered 100% and the group subject to the administration of scopolamine (1 mg/kg), known to result in the failure of memory through the inhibition of transmission of neurotransmitters, was considered 0%.

## CC1(C)CCC2(C(=O)O)CCC3(C)C(=CCC4C5(C)CCC(O)C(C)(CO)C5CCC43C)C2C1 (stereo not drawn) [hederagenine]
In vivo
  LD50: ≥ 5000 mg/kg
ICR mice
  disorders (general conditions): no disorders
  results of autopsy (abnormality of organs): not different from the control group
  LD10: 750 mg/kg
mice
  memory improvement / prevention activity to memory failure: 41.1%

## CC1(C)CC[C@]2(C(=O)O)CC[C@]3(C)C(=CC[C@@H]4[C@@]5(C)CC[C@H](O)C(C)(C)[C@@H]5CC[C@]43C)[C@@H]2C1 [oleanolic acid]
In vivo
  LD50: ≥ 5000 mg/kg
ICR mice
  results of autopsy (abnormality of organs): not different from the control group
  LD10: 750 mg/kg
mice
  memory improvement / prevention activity to memory failure: 43.3%

## Nc1c2c(nc3ccccc13)CCCC2 [tacrine, reference compound]
mice; positive control, oral administration 30 mg/kg, control = 100%
  prevention efficacy to memory failure: 35%

## C[C@H]1[C@H](C)CC[C@]2(C(=O)O)CC[C@]3(C)C(=CC[C@@H]4[C@@]5(C)CC[C@H](O)C(C)(C)[C@@H]5CC[C@]43C)[C@H]12 [ursolic acid]
In vivo
  LD50: ≥ 5000 mg/kg
ICR mice
  disorders (general conditions): no disorders
  results of autopsy (abnormality of organs): not different from the control group
  LD10: 750 mg/kg
mice
  memory improvement / prevention activity to memory failure: 37.0%
